Reference: PubChem BioAssay (NCI)
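Values below derive from 48-hour exposures of cells grown in 96-well plates, with endpoints linearly interpolated between the two concentrations bracketing the appropriate inhibition level. TGI: concentration producing complete growth inhibition.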

Test system: MOLT-4 leukemia
Test: inhibition of tumour cell growth, NCI panel, 48 h

Q: With `[N-]=[N+]=NCc1nc(N)c2c3c(sc2n1)CCCC3` as the compound, how does the TGI read?
A: > 100 µM

Q: `CCOC(=O)C(CCN1CCC2(CC1)C(=O)N(C)CN2c1ccccc1)C(=O)OCC` was tested. Which TGI did it give?
A: > 100 µM

Q: Which TGI does the source give for `Cc1cc(/N=C/c2ccc(F)cc2)n(-c2ccccc2)n1` here?
A: > 100 µM

Q: Which TGI does the source give for `COC1=C(Br)[C@H](O)[C@@]2(C=C1Br)CC(C(=O)NCCCOc1c(Br)cc(C(O)CNC(C)=O)cc1Br)=NO2` (stereo not given in full) here?
A: > 10 µM

Q: How did the TGI turn out when `COc1ccc(C[C@H]2COC(=O)[C@@H]2Cc2cccc(Br)c2)cc1OC` was run?
A: 82.3 µM

Q: For `CCOC(=O)/C=C(/C(=O)OCC)n1cnc2c(=O)[nH]c(NC(C)=O)nc21`, which TGI is on record?
A: > 100 µM

Q: `COc1cccc(C2c3cc4c(cc3OC(C)(N3CCCC3)C2C)OCO4)c1` (stereo not given) was tested. Which TGI did it give?
A: > 100 µM

Q: `O=C1NC(N/N=C\C(O)C(O)C(O)C(O)CO)=N/C1=C/c1ccc(Cl)cc1` (stereo not given) was tested. Which TGI did it give?
A: > 100 µM

Q: Which TGI does the source give for `CC(Oc1ccc(Cl)cc1Cl)C(=O)NN1C(=O)CSC1c1ccccc1` (stereo not given) here?
A: > 100 µM

Q: For `CCOC(=O)/C=C(\C(=O)OCC)n1ccc(=O)n(Cc2cn(CCCCOC(C)=O)nn2)c1=O`, which TGI is on record?
A: 9.12 µM

Q: Which TGI does the source give for `CC1=C(/C=C/C(C)=C/C=C/C(C)=C/C(=O)OC2CC(n3cc(F)c(=O)[nH]c3=O)OC2CO)C(C)(C)CCC1` (stereo not given) here?
A: 20.2 µM

Q: Which TGI does the source give for `Cc1cc(C(F)(F)F)cc(-n2nc(NS(=O)(=O)c3cc(C)c(Cl)cc3S)nc2N)n1` here?
A: 69.5 µM

Q: `CC1CN=C(N(C(=O)Nc2ccccc2)c2ccc(Cl)c(Cl)c2)S1` (stereo not given) was tested. Which TGI did it give?
A: > 10 µM

Q: How did the TGI turn out when `CC(C)(C)[Si](C)(C)Oc1ccc(C2CNC(=O)C23CCC(=O)N3Cc2ccccc2)cc1` (stereo not given) was run?
A: > 100 µM

Test system: PC-3 prostate
Test: inhibition of tumour cell growth, NCI panel, 48 h

Q: How did the TGI turn out when `[N-]=[N+]=NCc1nc(N)c2c3c(sc2n1)CCCC3` was run?
A: 6.72 µM

Q: For `CCOC(=O)C(CCN1CCC2(CC1)C(=O)N(C)CN2c1ccccc1)C(=O)OCC`, which TGI is on record?
A: > 100 µM

Q: `Cc1cc(/N=C/c2ccc(F)cc2)n(-c2ccccc2)n1` was tested. Which TGI did it give?
A: > 100 µM

Q: Which TGI does the source give for `COC1=C(Br)[C@H](O)[C@@]2(C=C1Br)CC(C(=O)NCCCOc1c(Br)cc(C(O)CNC(C)=O)cc1Br)=NO2` (stereo not given in full) here?
A: > 10 µM

Q: `COc1ccc(C[C@H]2COC(=O)[C@@H]2Cc2cccc(Br)c2)cc1OC` was tested. Which TGI did it give?
A: 53.6 µM

Q: Which TGI does the source give for `CCOC(=O)/C=C(/C(=O)OCC)n1cnc2c(=O)[nH]c(NC(C)=O)nc21` here?
A: > 100 µM

Q: Which TGI does the source give for `COc1cccc(C2c3cc4c(cc3OC(C)(N3CCCC3)C2C)OCO4)c1` (stereo not given) here?
A: 62.2 µM

Q: Which TGI does the source give for `O=C1NC(N/N=C\C(O)C(O)C(O)C(O)CO)=N/C1=C/c1ccc(Cl)cc1` (stereo not given) here?
A: > 100 µM

Q: For `CC(Oc1ccc(Cl)cc1Cl)C(=O)NN1C(=O)CSC1c1ccccc1` (stereo not given), which TGI is on record?
A: > 100 µM

Q: For `CCOC(=O)/C=C(\C(=O)OCC)n1ccc(=O)n(Cc2cn(CCCCOC(C)=O)nn2)c1=O`, which TGI is on record?
A: 36.9 µM

Q: For `CC1=C(/C=C/C(C)=C/C=C/C(C)=C/C(=O)OC2CC(n3cc(F)c(=O)[nH]c3=O)OC2CO)C(C)(C)CCC1` (stereo not given), which TGI is on record?
A: 20.8 µM

Q: Which TGI does the source give for `Cc1cc(C(F)(F)F)cc(-n2nc(NS(=O)(=O)c3cc(C)c(Cl)cc3S)nc2N)n1` here?
A: > 100 µM

Q: For `CC1CN=C(N(C(=O)Nc2ccccc2)c2ccc(Cl)c(Cl)c2)S1` (stereo not given), which TGI is on record?
A: > 100 µM

Q: With `CC(C)(C)[Si](C)(C)Oc1ccc(C2CNC(=O)C23CCC(=O)N3Cc2ccccc2)cc1` (stereo not given) as the compound, how does the TGI read?
A: 35.7 µM

Test system: IGROV1 ovarian
Test: inhibition of tumour cell growth, NCI panel, 48 h

Q: How did the TGI turn out when `[N-]=[N+]=NCc1nc(N)c2c3c(sc2n1)CCCC3` was run?
A: 2.92 µM

Q: For `CCOC(=O)C(CCN1CCC2(CC1)C(=O)N(C)CN2c1ccccc1)C(=O)OCC`, which TGI is on record?
A: > 100 µM

Q: For `Cc1cc(/N=C/c2ccc(F)cc2)n(-c2ccccc2)n1`, which TGI is on record?
A: > 100 µM

Q: With `COC1=C(Br)[C@H](O)[C@@]2(C=C1Br)CC(C(=O)NCCCOc1c(Br)cc(C(O)CNC(C)=O)cc1Br)=NO2` (stereo not given in full) as the compound, how does the TGI read?
A: > 10 µM

Q: For `COc1ccc(C[C@H]2COC(=O)[C@@H]2Cc2cccc(Br)c2)cc1OC`, which TGI is on record?
A: > 100 µM

Q: How did the TGI turn out when `CCOC(=O)/C=C(/C(=O)OCC)n1cnc2c(=O)[nH]c(NC(C)=O)nc21` was run?
A: > 100 µM

Q: How did the TGI turn out when `COc1cccc(C2c3cc4c(cc3OC(C)(N3CCCC3)C2C)OCO4)c1` (stereo not given) was run?
A: 37.9 µM

Q: `O=C1NC(N/N=C\C(O)C(O)C(O)C(O)CO)=N/C1=C/c1ccc(Cl)cc1` (stereo not given) was tested. Which TGI did it give?
A: > 100 µM

Q: `CC(Oc1ccc(Cl)cc1Cl)C(=O)NN1C(=O)CSC1c1ccccc1` (stereo not given) was tested. Which TGI did it give?
A: > 100 µM

Q: Which TGI does the source give for `CCOC(=O)/C=C(\C(=O)OCC)n1ccc(=O)n(Cc2cn(CCCCOC(C)=O)nn2)c1=O` here?
A: 43 µM

Q: With `CC1=C(/C=C/C(C)=C/C=C/C(C)=C/C(=O)OC2CC(n3cc(F)c(=O)[nH]c3=O)OC2CO)C(C)(C)CCC1` (stereo not given) as the compound, how does the TGI read?
A: 24.6 µM

Q: For `Cc1cc(C(F)(F)F)cc(-n2nc(NS(=O)(=O)c3cc(C)c(Cl)cc3S)nc2N)n1`, which TGI is on record?
A: > 100 µM

Q: How did the TGI turn out when `CC1CN=C(N(C(=O)Nc2ccccc2)c2ccc(Cl)c(Cl)c2)S1` (stereo not given) was run?
A: > 100 µM

Q: `CC(C)(C)[Si](C)(C)Oc1ccc(C2CNC(=O)C23CCC(=O)N3Cc2ccccc2)cc1` (stereo not given) was tested. Which TGI did it give?
A: 31.6 µM

Test system: SK-MEL-2 melanoma
Test: inhibition of tumour cell growth, NCI panel, 48 h

Q: For `[N-]=[N+]=NCc1nc(N)c2c3c(sc2n1)CCCC3`, which TGI is on record?
A: 27.9 µM

Q: Which TGI does the source give for `CCOC(=O)C(CCN1CCC2(CC1)C(=O)N(C)CN2c1ccccc1)C(=O)OCC` here?
A: > 100 µM

Q: For `Cc1cc(/N=C/c2ccc(F)cc2)n(-c2ccccc2)n1`, which TGI is on record?
A: > 100 µM

Q: For `COC1=C(Br)[C@H](O)[C@@]2(C=C1Br)CC(C(=O)NCCCOc1c(Br)cc(C(O)CNC(C)=O)cc1Br)=NO2` (stereo not given in full), which TGI is on record?
A: > 10 µM

Q: `COc1ccc(C[C@H]2COC(=O)[C@@H]2Cc2cccc(Br)c2)cc1OC` was tested. Which TGI did it give?
A: 73.5 µM

Q: With `CCOC(=O)/C=C(/C(=O)OCC)n1cnc2c(=O)[nH]c(NC(C)=O)nc21` as the compound, how does the TGI read?
A: > 100 µM

Q: With `COc1cccc(C2c3cc4c(cc3OC(C)(N3CCCC3)C2C)OCO4)c1` (stereo not given) as the compound, how does the TGI read?
A: 11.2 µM

Q: Which TGI does the source give for `O=C1NC(N/N=C\C(O)C(O)C(O)C(O)CO)=N/C1=C/c1ccc(Cl)cc1` (stereo not given) here?
A: > 100 µM

Q: For `CC(Oc1ccc(Cl)cc1Cl)C(=O)NN1C(=O)CSC1c1ccccc1` (stereo not given), which TGI is on record?
A: > 100 µM

Q: With `CCOC(=O)/C=C(\C(=O)OCC)n1ccc(=O)n(Cc2cn(CCCCOC(C)=O)nn2)c1=O` as the compound, how does the TGI read?
A: 37 µM

Q: With `CC1=C(/C=C/C(C)=C/C=C/C(C)=C/C(=O)OC2CC(n3cc(F)c(=O)[nH]c3=O)OC2CO)C(C)(C)CCC1` (stereo not given) as the compound, how does the TGI read?
A: 55.5 µM

Q: With `Cc1cc(C(F)(F)F)cc(-n2nc(NS(=O)(=O)c3cc(C)c(Cl)cc3S)nc2N)n1` as the compound, how does the TGI read?
A: > 100 µM

Q: Which TGI does the source give for `CC1CN=C(N(C(=O)Nc2ccccc2)c2ccc(Cl)c(Cl)c2)S1` (stereo not given) here?
A: 40.4 µM

Q: For `CC(C)(C)[Si](C)(C)Oc1ccc(C2CNC(=O)C23CCC(=O)N3Cc2ccccc2)cc1` (stereo not given), which TGI is on record?
A: 35.5 µM

Test system: U251 CNS
Test: inhibition of tumour cell growth, NCI panel, 48 h

Q: How did the TGI turn out when `[N-]=[N+]=NCc1nc(N)c2c3c(sc2n1)CCCC3` was run?
A: > 25.3 µM

Q: Which TGI does the source give for `CCOC(=O)C(CCN1CCC2(CC1)C(=O)N(C)CN2c1ccccc1)C(=O)OCC` here?
A: > 100 µM

Q: `Cc1cc(/N=C/c2ccc(F)cc2)n(-c2ccccc2)n1` was tested. Which TGI did it give?
A: > 100 µM

Q: How did the TGI turn out when `COC1=C(Br)[C@H](O)[C@@]2(C=C1Br)CC(C(=O)NCCCOc1c(Br)cc(C(O)CNC(C)=O)cc1Br)=NO2` (stereo not given in full) was run?
A: > 10 µM

Q: With `COc1ccc(C[C@H]2COC(=O)[C@@H]2Cc2cccc(Br)c2)cc1OC` as the compound, how does the TGI read?
A: 73.4 µM

Q: Which TGI does the source give for `CCOC(=O)/C=C(/C(=O)OCC)n1cnc2c(=O)[nH]c(NC(C)=O)nc21` here?
A: > 100 µM

Q: `COc1cccc(C2c3cc4c(cc3OC(C)(N3CCCC3)C2C)OCO4)c1` (stereo not given) was tested. Which TGI did it give?
A: 35.8 µM

Q: For `O=C1NC(N/N=C\C(O)C(O)C(O)C(O)CO)=N/C1=C/c1ccc(Cl)cc1` (stereo not given), which TGI is on record?
A: > 100 µM

Q: `CC(Oc1ccc(Cl)cc1Cl)C(=O)NN1C(=O)CSC1c1ccccc1` (stereo not given) was tested. Which TGI did it give?
A: > 100 µM

Q: `CCOC(=O)/C=C(\C(=O)OCC)n1ccc(=O)n(Cc2cn(CCCCOC(C)=O)nn2)c1=O` was tested. Which TGI did it give?
A: 30.9 µM

Q: For `CC1=C(/C=C/C(C)=C/C=C/C(C)=C/C(=O)OC2CC(n3cc(F)c(=O)[nH]c3=O)OC2CO)C(C)(C)CCC1` (stereo not given), which TGI is on record?
A: 20 µM

Q: `Cc1cc(C(F)(F)F)cc(-n2nc(NS(=O)(=O)c3cc(C)c(Cl)cc3S)nc2N)n1` was tested. Which TGI did it give?
A: > 100 µM

Q: With `CC1CN=C(N(C(=O)Nc2ccccc2)c2ccc(Cl)c(Cl)c2)S1` (stereo not given) as the compound, how does the TGI read?
A: > 10 µM

Q: Which TGI does the source give for `CC(C)(C)[Si](C)(C)Oc1ccc(C2CNC(=O)C23CCC(=O)N3Cc2ccccc2)cc1` (stereo not given) here?
A: 36.2 µM
